Reference: patent publication US9732050B2, “Modulators of sperm hypermotility and uses thereof” (HYDRA BIOSCIENCES, INC., priority 2005, dated 2017)

Target: T1, Mouse CatSper1 currents (Mus musculus, UniProt Q91ZR5)
T1 construct: Spermatozoa from corpus epididymis were used because the CD of such cells was less fragile; from tissue; host or cells: mouse spermatozoa from corpus epididymis
Test: Inhibition of mouse CatSper1 currents in electrophysiological recordings
Assay type: cell-based
Description: Compound (II) was tested for its effects on sperm hyperactivation using a single-sperm motility assay as described in Kirichok Y, Navarro B, Clapham D E. “Whole-cell patch-clamp measurements of spermatozoa reveal an alkaline-activated Ca2+ channel”. Nature. 2006; 439(7077):737-40. Mouse sperm was prepared as described in Kirichok.
The patch pipette was applied to the sperm cell cytoplasmic droplet (CD). Spermatozoa from corpus epididymis were used because the CD of such cells was less fragile. The most mature spermatozoa, those with the CD located next to the principal piece, were chosen for experiments. Pipette resistance with Cs-Methanesulfonate-based solutions was 6-13 MΩ. Access resistance in the whole-cell configuration was 25-120 MS). The pipette solution (in mM) was as follows: 140 Cs-Methanesulfonate, 5 NaCl, 10 HEPES, 10 EGTA, pH 7.2 (pH adjusted with CsOH).
Seals between the patch pipette and the cytoplasmic droplet were formed in HS bath solution (Kirichok Y, Navarro B, Clapham D E. Whole-cell patch-clamp measurements of spermatozoa reveal an alkaline-activated Ca2+ channel. Nature. 2006 Feb. 9; 439(7077):737-40). After break-in, the bath solution was changed to recording solution: 150 NaGluconate, 10 HEPES, 2Na3HEDTA and 2 EGTA, pH 7.4 (pH adjusted with NaOH). CaCl2 was added to the solution in accordance with the WinMAXC v2.05 program (C. Patton, Stanford University) to yield ˜[…] free [Ca2+].
A 20 micromolar solution of compound (II), i.e. 3,4-bis(2-thienylcarbonyl)-1,2,5-oxadiazole-2-ium-2-olate, was prepared from a 100 mM DMSO stock in the recording solution described above. Osmolarity of the solutions was approximately 303 mmol kg-1.
The membrane potential was held at 0 mV. Every 5 seconds CatSper currents were monitored by application of a voltage ramp from −100 mV to +100 mV over the course of 400 milliseconds. Following break-in, cells were monitored until a steady state level of CatSper current (plotted at +80 mV) was observed. […] Steady state block was monitored for 5-6 sweeps. […] Series resistance was monitored throughout the recordings.

block of CatSper current (20 micromolar, current plotted at +80 mV, mouse spermatozoa from corpus epididymis): steady state block was achieved
sweeps until steady state block (20 micromolar, voltage ramp every 5 seconds): 2-3 sweeps
CatSper current following removal of the compound (washout after 20 micromolar): returned rapidly to unblocked levels
SMILES: O=C(c1cccs1)c1no[n+]([O-])c1C(=O)c1cccs1 [Compound (II), 3,4-bis(2-thienylcarbonyl)-1,2,5-oxadiazole-2-ium-2-olate]
